Where “and” joins values, the source holds several entries; their conditions need not be identical. Identical values can stand only once.
Assays:
[1] = cited from earlier work
hypoxic tumors = conditions: in vivo; cited from earlier work
[2] = Distribution of radioactive drug in various organs and tissues of tumor-bearing rats (γ-counter); type: in vivo, male Buffalo rats; conditions: I/V
Method: To measure the distribution of radioactive drug in various organs and tissues, the solution of […] in saline buffer was injected I/V into 3 male Buffalo rats. […] The radioactivity of samples was measured by γ-counter and corrected for weight and the time of decay.
Results from 3 animals are shown.

[3] = test system: hypoxic Q7 tumor (Morris 7777 hepatoma); assay: PET analysis of a tumor-bearing rat treated with [18F]-EF5; type: in vivo, male Buffalo rats; conditions: rat bearing Q7 tumor in the leg, 150 minutes post injection
Method: The dark spot on the right side of the image represents a tumor and the dark spot in the middle of the image represents a bladder.
FIG. 3 illustrates a PET image of a tumor-bearing rat treated with 18-F-labeled EF5, 150 minutes post injection. The dark spot in the right side of the image represents the tumor and the dark spot in the middle of the image represents the bladder.
Q7 cells were obtained from the American Type Culture Collection (ATCC). They were maintained in exponential growth by transfers at 3.5 day intervals with standard culture conditions. Growth medium was Eagle's NEM supplemented with 15% fetal calf serum and standard penicillin and streptomycin.
All animal studies conformed to the regulations of the University of Pennsylvania Institutional Animal Care and Use Committee. Male Buffalo rats (Harlan Sprague Dawley, Indianapolis, Ind., USA) were used for all studies. Donor tumors were created by injecting 1 million Q7 cells subcutaneously into the thigh region. The average growth time to achieve a 1 cm diameter tumor was 21 days. Tumors of less than 2 g were used in the experiments.

[4] = multiple radioactive products distinct from parent drug following renal clearance; cited from earlier work

For `O=C(Cn1ccnc1[N+](=O)[O-])NCC(F)(F)C(F)(F)F` [EF5, 2-(2-nitro-1H-imidazol-1-yl)-N-(2,2,3,3,3-pentafluoropropyl)acetamide], which “Drug stability in vivo” value [1] is on record?
The value was “high drug stability in vivo”.

And the Blood-brain barrier passage ([1]; in vivo)?
Its Blood-brain barrier passage is “ability to cross blood-brain barrier”.

Which results are given for `O=C(Cn1ccnc1[N+](=O)[O-])NCCCF` [[^18F]-EF1]?
Biodistribution (hypoxic tumors): relatively uniform biodistribution limited by slow equilibration with brain tissue; Labeling of hypoxic tumors (hypoxic tumors): good potential for labeling of hypoxic tumors

Which results are given for `O=C(Cn1ccnc1[N+](=O)[O-])NCC(F)(F)C(F)(F)F` [[^18F]-EF5, [^18F]-2-(2-Nitro-1H-imidazol-1-yl)-N-(2,2,3,3,3-pentafluoropropyl)-acetamide]?
Tissue distribution of [^18F]-EF5 in rats bearing tumors ([2]; Blood, 3 hrs): 0.260 % dose/gram and 0.279 % dose/gram; Tissue distribution of [^18F]-EF5 in rats bearing tumors ([2]; Bone, 3 hrs): 0.040 % dose/gram and 0.079 % dose/gram; Tissue distribution of [^18F]-EF5 in rats bearing tumors ([2]; Bone, 4 hrs): 0.071 % dose/gram; Tissue distribution of [^18F]-EF5 in rats bearing tumors ([2]; Brain, 3 hrs): 0.116 % dose/gram and 0.176 % dose/gram; Tissue distribution of [^18F]-EF5 in rats bearing tumors ([2]; Brain, 4 hrs): 0.150 % dose/gram; Tissue distribution of [^18F]-EF5 in rats bearing tumors ([2]; Heart, 3 hrs): 0.209 % dose/gram and 0.318 % dose/gram; Tissue distribution of [^18F]-EF5 in rats bearing tumors ([2]; Heart): 0.277 % dose/gram; Tissue distribution of [^18F]-EF5 in rats bearing tumors ([2]; Intestine, 3 hrs): 0.410 % dose/gram and 0.477 % dose/gram; Tissue distribution of [^18F]-EF5 in rats bearing tumors ([2]; Intestine, 4 hrs): 0.376 % dose/gram; Tissue distribution of [^18F]-EF5 in rats bearing tumors ([2]; Kidney, 3 hrs): 0.510 % dose/gram and 0.650 % dose/gram; Tissue distribution of [^18F]-EF5 in rats bearing tumors ([2]; Kidney, 4 hrs): 0.500 % dose/gram; Tissue distribution of [^18F]-EF5 in rats bearing tumors ([2]; Liver, 3 hrs): 0.399 % dose/gram and 0.578 % dose/gram; Tissue distribution of [^18F]-EF5 in rats bearing tumors ([2]; Liver, 4 hrs): 0.489 % dose/gram; Tissue distribution of [^18F]-EF5 in rats bearing tumors ([2]; Lung, 3 hrs): 0.217 % dose/gram and 0.357 % dose/gram; Tissue distribution of [^18F]-EF5 in rats bearing tumors ([2]; Lung, 4 hrs): 0.326 % dose/gram; Tissue distribution of [^18F]-EF5 in rats bearing tumors ([2]; Muscle, 3 hrs): 0.162 % dose/gram and 0.246 % dose/gram; Tissue distribution of [^18F]-EF5 in rats bearing tumors ([2]; Muscle, 4 hrs): 0.187 % dose/gram; Tissue distribution of [^18F]-EF5 in rats bearing tumors ([2]; Spleen, 3 hrs): 0.192 % dose/gram and 0.294 % dose/gram; Tissue distribution of [^18F]-EF5 in rats bearing tumors ([2]; Spleen, 4 hrs): 0.242 % dose/gram; Visibility of the tumor in the PET image [3]: clearly visible

With `O=[N+]([O-])c1nccn1CC(O)C[18F]` (stereo not shown) [[^18F]-fluoromisonidazole] as the compound, how does the Stability in vivo [4] read?
The Stability in vivo was “not stable in vivo”.

Reference: patent US7432295B2, “Preparation of compounds useful for the detection of hypoxia” (The Trustees of The University of Pennsylvania, priority 1999, dated 2008)
